Source: patent publication US20240060146A1, “CHEMICAL SUBSTANCE EVALUATION SYSTEM USING MULTICOLOR LIGHT-EMITTING CELLS” (TOHOKU UNIVERSITY, priority 2020, published 2024)
Counter-ions that a name gives are not always drawn.

Assays:
Assay type in all cases: cell-based
2H4 cells [1] = assay: IL-2 Luc assay: evaluation of chemical substance in 2H4 cells; settings: 1 h chemical, then PMA/ionomycin, luminescence after six hours, class from Min % suppression of nIL2LA
Protocol: (§1) 2H4 cells were established from Jurkat cells according to the method described in PTL 1. First, for the preparation of 2H4 cells, a plasmid having SLG introduced downstream of the IL-2 promoter, a plasmid having SLR introduced downstream of the G3PDH promoter, and a plasmid having SLO introduced downstream of the INF-γ promoter were prepared as internal standards. These plasmids contained a resistance gene for hygromycin B, puromycin, and neomycin downstream of SLG, SLR, and SLO, respectively. The conditions for drug selection after transfection of the host Jurkat cells were as follows: in the primary selection, the cells were cultured for 1 week in the presence of a drug. In the secondary selection culture, the cells that survived in the primary selection culture were seeded in a 96-well plate at 1 cell/well or 200 cells/well, and cultured for 2 weeks under the same drug conditions. After the secondary selection culture, the cells were subjected to clone selection from the two points of signal intensity and signal induction by drug treatment. The G3PDH promoter SLR was first introduced to establish monochromatic stable cell line Jurkat: G3PDH-SLR #14D1 cells. These cells were used as the parent cell line to introduce the INF-γ promoter SLO, thereby establishing bichromatic stable cell line Jurkat: INFγ-SLO/G3PDH-SLR #2B12 cells. Subsequently, the obtained cells were used as a parent cell line to introduce the IL-2 promoter SLG, thereby establishing trichromatic stable cell line Jurkat IL-2-SLG/INFγ-SLO/G3PDH-SLR #2H4 cells.
(§2) % suppression={(nIL2LA in 2H4 cells untreated with a chemical substance)−(nIL2LA in 2H4 cells treated with a chemical substance)}×100/(nIL2LA in 2H4 cells untreated with a chemical substance) ---(1) Inh-GAPLA=(GAPLA in 2H4 cells treated with a chemical substance)/(GAPLA in 2H4 cells untreated with a chemical substance) ---(2)
The chemical substances listed in Table 1 were evaluated using 2H4 cells. 2H4 cells were seeded in a 96-well plate at 2×10^5 cells/50 μl/well and treated with each chemical substance for 1 hour, followed by incubating the cells with 25 nM PMA and 1 µM ionomycin […]. After six hours from the treatment with PMA and ionomycin, Tripluc: Assay Reagent (manufactured by Toyobo Co., Ltd.) was added, and the amount of luminescence was measured with a Phelios microplate luminometer (manufactured by Atto Corporation). For control, 2H4 cells untreated with a chemical substance were also examined in the same manner. The amount of luminescence of SLG luciferase activity (IL2LA), SLR luciferase activity (GAPLA), and SLO luciferase activity (IFNLA) was measured, and IL-2LA and IFNLA were each normalized by GAPLA and determined to be nIL2LA and nIFNLA, respectively. Thereafter, for the concentration of each chemical substance, the value of suppression was calculated according to formula (1) above, and the chemical substances were evaluated by using their minimum value (Min suppression).

2H4 cells [2] = assay: IL-2 Luc LTT: evaluation of chemical substance in 2H4 cells; settings: 1 h chemical, then 25 nM PMA and 1 μM ionomycin 24 h, class from Min % suppression (nIL2LA) and Min Inh-GAPLA
Protocol: as §1
The chemical substances listed in Table 1 were evaluated using 2H4 cells. 2H4 cells were seeded in a 96-well plate at 1×10^4/well and treated with each chemical substance for 1 hour, followed by incubating the cells with 25 nM PMA and 1 μM ionomycin for 24 hours. After 24 hours from the treatment with PMA and ionomycin, Tripluck Assay Reagent (manufactured by Toyobo Co., Ltd.) was added, and the amount of luminescence was measured with a Phelios microplate luminometer (manufactured by Atto Corporation). For control, 2H4 cells untreated with a chemical substance were also examined in the same manner. The amount of luminescence of SLG luciferase activity (IL2LA), SLR luciferase activity (GAPLA), and SLO luciferase activity (IFNLA) was measured, and IL-2LA and IFNLA were each normalized by GAPLA and determined to be nIL2LA and nIFNLA, respectively. Thereafter, for the concentration of each chemical substance, “% suppression” and “Inh-GAPLA” were determined according to the following formulas (1) and (2), and the chemical substances were evaluated by using their minimum value (Min % suppression, Min Inh-GAPLA).
In the evaluation, for control, PMA/ionomycin-treated 2H4 cells and PMA/ionomycin-untreated 2H4 cells were also measured for nIL2LA.
as §2

2H4 cells [3] = assay: Evaluation of combination of IL-2 Luc LTT and IL-2 Luc assay; parameters: key: Positive (Pos): If the result is either LCT in the IL-2 Luc LTT or S in the IL-2 Luc assay, or both, the chemical substance is determined to be an immunosuppressive substance.; Negative (Neg): In the case other than the above, the chemical substance is determined to be a non-immunosuppressive substance; settings: LCT in IL-2 Luc LTT or S in IL-2 Luc assay = Pos
Protocol: Positive (Pos): If the result is either LCT in the IL-2 Luc LTT or S in the IL-2 Luc assay, or both, the chemical substance is determined to be an immunosuppressive substance. Negative (Neg): In the case other than the above, the chemical substance is determined to be a non-immunosuppressive substance.

SMILES | IL-2 Luc Assay (2H4 cells [1]) | IL-2 Luc LTT (2H4 cells [2]) | Evaluation of Combination (2H4 cells [3])
O=c1[nH]cc(F)c(=O)[nH]1 [5-Fluorouracil] | N (−35<Min % suppression <35: No Effect (denoted as “N”; determined to not affect immunity)) | LCT (Min % suppression ≤−35 and Min Inh-GAPLA <0.7: Leukocyte toxic (denoted as “LCT”; determined to have cell growth inhibition action and/or metabolic activity inhibition action)) | Pos
S=c1nc[nH]c2nc[nH]c12 [6-Mercaptoprine] | N (−35<Min % suppression <35: No Effect (denoted as “N”; determined to not affect immunity)) | NLCT | Neg
Nc1nc2nc[nH]c2c(=S)[nH]1 [6-Thioguanine] | N (−35<Min % suppression <35: No Effect (denoted as “N”; determined to not affect immunity)) | LCT (Min % suppression ≤−35 and Min Inh-GAPLA <0.7: Leukocyte toxic (denoted as “LCT”; determined to have cell growth inhibition action and/or metabolic activity inhibition action)) | Pos
CC(=O)Nc1ccc(O)cc1 [Acetaminophen (AA), Acetaminophen] | A (Min suppression ≤−35: Augmentation (denoted as “A”; determined to have immunoaugmenting action)) | – | Pos
Nc1nc2c(ncn2COCCO)c(=O)[nH]1 [Acyclovir] | N (−35<Min % suppression <35: No Effect (denoted as “N”; determined to not affect immunity)) | I (−35<Min % suppression <35 and 0.7≤Min Inh-GAPLA: Inconclusive (denoted as “I”; possibly not measurable due to low water solubility)) | Neg
Cn1cnc([N+](=O)[O-])c1Sc1ncnc2nc[nH]c12 [Azathioprine (AZ), Azathioprine] | S (Min %; suppression ≥35: Suppression (denoted as “S”; determined to have immunosuppressive action)) | NLCT | Pos
CS(=O)(=O)OCCCCOS(C)(=O)=O [Busulfan] | N (−35<Min % suppression <35: No Effect (denoted as “N”; determined to not affect immunity)) | I (−35<Min % suppression <35 and 0.7≤Min Inh-GAPLA: Inconclusive (denoted as “I”; possibly not measurable due to low water solubility)) | Neg
O=NN(CCCl)C(=O)NCCCl [Carmustine] | S (Min %; suppression ≥35: Suppression (denoted as “S”; determined to have immunosuppressive action)) | NLCT | Pos
CCN(CC)CCCC(C)Nc1ccnc2cc(Cl)ccc12 (centres unmarked) [Chloroquine (CQ), Chloroquine] | S (Min %; suppression ≥35: Suppression (denoted as “S”; determined to have immunosuppressive action)) | NLCT | Pos
NS(=O)(=O)c1cc2c(cc1Cl)N=CNS2(=O)=O [Chlorothiazide] | N (−35<Min % suppression <35: No Effect (denoted as “N”; determined to not affect immunity)) | NLCT | Neg
COc1cc2c(c(OC)c1OC)-c1ccc(OC)c(=O)cc1[C@@H](NC(C)=O)CC2 [Colchicine] | S (Min %; suppression ≥35: Suppression (denoted as “S”; determined to have immunosuppressive action)) | LCT (Min % suppression ≤−35 and Min Inh-GAPLA <0.7: Leukocyte toxic (denoted as “LCT”; determined to have cell growth inhibition action and/or metabolic activity inhibition action)) | Pos
Nc1ccn([C@@H]2O[C@H](CO)[C@@H](O)[C@@H]2O)c(=O)n1 [Cytarabine] | N (−35<Min % suppression <35: No Effect (denoted as “N”; determined to not affect immunity)) | LCT (Min % suppression ≤−35 and Min Inh-GAPLA <0.7: Leukocyte toxic (denoted as “LCT”; determined to have cell growth inhibition action and/or metabolic activity inhibition action)) | Pos
C[C@@H]1C[C@H]2[C@@H]3CCC4=CC(=O)C=C[C@]4(C)[C@@]3(F)[C@@H](O)C[C@]2(C)[C@@]1(O)C(=O)CO [Dexamethasone (Dex), Dexamethasone] | N (−35<Min % suppression <35: No Effect (denoted as “N”; determined to not affect immunity)) | NLCT | Neg
C[C@H]1O[C@@H](O[C@H]2[C@@H](O)C[C@H](O[C@H]3[C@@H](O)C[C@H](O[C@H]4CC[C@@]5(C)[C@H](CC[C@@H]6[C@@H]5C[C@@H](O)[C@]5(C)[C@@H](C7=CC(=O)OC7)CC[C@]65O)C4)O[C@@H]3C)O[C@@H]2C)C[C@H](O)[C@@H]1O [Digoxin] | S (Min %; suppression ≥35: Suppression (denoted as “S”; determined to have immunosuppressive action)) | NLCT | Pos
CN(C)CCOC(c1ccccc1)c1ccccc1 [Diphenhydramine] | S (Min %; suppression ≥35: Suppression (denoted as “S”; determined to have immunosuppressive action)) | NLCT | Pos
COc1cccc2c1C(=O)c1c(O)c3c(c(O)c1C2=O)C[C@@](O)(C(=O)CO)C[C@@H]3O[C@H]1C[C@H](N)[C@H](O)[C@H](C)O1 [Doxorubicin hydrochloride] | S (Min %; suppression ≥35: Suppression (denoted as “S”; determined to have immunosuppressive action)) | LCT (Min % suppression ≤−35 and Min Inh-GAPLA <0.7: Leukocyte toxic (denoted as “LCT”; determined to have cell growth inhibition action and/or metabolic activity inhibition action)) | Pos
COc1cc([C@@H]2c3cc4c(cc3[C@@H](O[C@@H]3O[C@@H]5CO[C@@H](C)O[C@H]5[C@H](O)[C@H]3O)[C@H]3COC(=O)[C@H]23)OCO4)cc(OC)c1O [Etoposide] | N (−35<Min % suppression <35: No Effect (denoted as “N”; determined to not affect immunity)) | – | Pos
Nc1nc(F)nc2c1ncn2[C@@H]1O[C@H](CO)[C@@H](O)[C@@H]1O [Fludarabine] | A (Min suppression ≤−35: Augmentation (denoted as “A”; determined to have immunoaugmenting action)) | LCT (Min % suppression ≤−35 and Min Inh-GAPLA <0.7: Leukocyte toxic (denoted as “LCT”; determined to have cell growth inhibition action and/or metabolic activity inhibition action)) | Pos
COc1ccc2c(c1)c(CC(=O)O)c(C)n2C(=O)c1ccc(Cl)cc1 [Indomethacin] | S (Min %; suppression ≥35: Suppression (denoted as “S”; determined to have immunosuppressive action)) | – | Pos
O=C(O)c1cc(/N=N/c2ccc(S(=O)(=O)Nc3ccccn3)cc2)ccc1O [Sulfasalazine (SASP), Sulfasalazine] | S (Min %; suppression ≥35: Suppression (denoted as “S”; determined to have immunosuppressive action)) | – | Pos
